Experimental data as given in US8530407B2, “Multi-component antioxidant compounds, pharmaceutical compositions containing same and their use for reducing or preventing oxidative stress” (Yissum Research Development Company of the Hebrew …, priority 2000, dated 2013).

How the values were obtained:
[1] = test system: reactive oxygen species (ROS) in DHER14 cells; assay: Inhibition of ROS production, fluorescent dye DHDCF; type: cell-based
Description: FIG. 3 represents cellular ROS levels as determined using a fluorescence assay in the presence of CB, NOXi and NAC antioxidants.
The concentration of reactive oxygen species (ROS) in DHER14 cells following administration of antioxidants was determined using the ROS sensitive fluorescent dye DHDCF (fluoresceine derivative). […] The efficacy of CB in reducing ROS was about ˜50 fold better then these two known antioxidants.

[2] = test system: JNK (c-Jun NH2-terminal kinase); conditions: DHER14 cells exposed to cisplatin (CDDP, 30 μM)
Description: (§1) In order to show the efficacy of CB against a stimulant that activates oxidative stress, an inhibition assay of both JNK (c-Jun NH2-terminal kinase) and p38 enzymes in tissue culture was performed.
(§2) NIH3T3 cells overexpressing EGF receptor (DHER14 cells) (55) were exposed to cisplatin (CDDP, 30 μM) which activates specific enzymes involved in apoptosis including JNK and p38.
(§3) Two known antioxidants were used as positive controls, NOXi (at 300 and 1000 μM) and NAC (NAC) (at 1000 μM).

p38 = conditions: DHER14 cells exposed to cisplatin (CDDP, 30 μM)
Description: as §1, §2, §3

[3] = 20 μM, detected by specific antibodies

efficacy against JNK phosphorylation compared with CB at 20 μM ([2]; 1 mM) | Molecule | ROS level ([1]; 20 μM) | efficacy in reducing ROS relative to NOXi and NAC ([1]; CB 20 μM versus 1000 μM NAC or 1000 μM NOXi) [fold] | phosphorylated JNK [2, 3] | phosphorylated form of JNK ([2]; increasing concentrations) | phosphorylated p38 (p38; [3]) | phosphorylated form of p38 (p38; increasing concentrations) | efficiency in reducing ROS compared with CB at 20 μM ([1]; 1000 μM) | efficacy against p38 phosphorylation compared with CB at 20 μM (p38; 1 mM)
 | N-Acetyl Cysteine-Glycine-Proline-Cysteine-Amid [CB] | reduction of ROS below normal levels was prominent | ~50 | not detected at all | dramatic reduction | not detected at all | dramatic reduction |  | 
similar | CC(=O)N[C@@H](CS)C(=O)O [NAC, N-acetyl cysteine, reference compound] |  |  |  |  |  |  | as efficient as | similar
